From US20180099931A1 (AbbVie S.à.r.l., priority 2016, published 2018)
Like-named read-outs stand apart in the source and are kept apart here.

Target: T1, F508delCFTR (Homo sapiens, UniProt P13569, DEL508-508)
T1 construct: expressed in transfected cells; host or cells: CFBE41o- human lung-derived epithelial cells (CFBE4lo-F508delCFTR-HRP), doxycycline-inducible
Assay: Cell Surface Expression-Horse Radish Peroxidase (CSE-HRP) Assay;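 as to Maximum % activity (with co-corrector): co-corrector and positive control are both the same reference corrector at 2 µM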;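 as to Maximum % activity (without co-corrector): percent of the 2 µM on-plate positive control corrector response above DMSO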
Format: cell-based
Settings: for Maximum % activity (with co-corrector) / Emax: maximum at any tested concentration, normalized to on-plate positive control; for Emax: read-out: Maximum % activity (without co-corrector)
Experimental: Cell Surface Expression-Horse Radish Peroxidase (CSE-HRP) Assay;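 as to Maximum % activity (with co-corrector): co-corrector and positive control are both the same reference corrector at 2 µM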;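 as to Maximum % activity (without co-corrector): percent of the 2 µM on-plate positive control corrector response above DMSO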
The development was achieved by expressing the F508delCFTR mutation along with a horseradish peroxidase (HRP) in the fourth exofacial loop, and then measuring the HRP activity using luminescence readout from these cells, CFBE4lo-F508delCFTR-HRP, that were incubated overnight with the test corrector compounds, either without or with the co-corrector. […] The test compounds were then added either without or with a co-corrector at the required concentrations and further incubated for 18-24 hours at 33° C. The highest concentration tested was 20 μM with an 8-point concentration response curve using a 3-fold dilution in both the test compound without or with the co-corrector. Three replicate plates were run to determine one EC50. All plates contained negative controls (dimethyl sulfoxide, DMSO) and positive control (2 μM of 3-[(2R,4R)-4-({[1-(2,2-difluoro-1,3-benzodioxol-5-yl)cyclopropyl]carbonyl}amino)-7-methoxy-3,4-dihydro-2H-chromen-2-yl]benzoic acid) as well as on-plate concentration response of the positive control. […] The raw counts from the experiment were analyzed using Accelrys® Assay Explorer v3.3.
1−[3*SDPositive Control+3*SDNegative Control/Absolute(MeanPositive Control−MeanNegative Control)]
wherein “SD” is standard deviation.
The % activity measured at each of the 8 test concentrations of the test compound added either without or with a co-corrector (2 μM of 3-[(2R,4R)-4-({[1-(2,2-difluoro-1,3-benzodioxol-5-yl)cyclopropyl]carbonyl}amino)-7-methoxy-3,4-dihydro-2H-chromen-2-yl]benzoic acid) was normalized to the on-plate positive control using the following formulae:
% activity(Test compound without co-corrector)=[(test compound without co-corrector response−DMSO response)/(positive control response−DMSO response)]*100
% activity(Test compound with co-corrector)=[(test compound with co-corrector response−DMSO response)/(positive control response−DMSO response)]*100
The maximum % activity achieved for the test compound either without or with a co-corrector at any tested concentration is presented in Table 4 along with the respective EC50's calculated using the following general sigmoidal curve with variable Hill slope equation (described as Model 42 in the Accelrys® Assay Explorer v3.3 software):
General sigmoidal curve with concentration, response, top, bottom, EC50 and Hill slope. This model describes a sigmoidal curve with an adjustable baseline, a. The equation can be used to fit curves where response is either increasing or decreasing with respect to the independent variable, “x”.
“x” is a concentration of drug under test. “y” is the response. “a” is the maximum response, and “d” is the minimum response “c” is the inflection point (EC50) for the curve. That is, “y” is halfway between the lower and upper asymptotes when x=c. “b” is the slope-factor or Hill coefficient. The sign of b is positive when the response increases with increasing dose and is negative when the response decreases with increasing dose (inhibition).

[1] = test compound without co-corrector, read-out: EC50 (without co-corrector)
[2] = with co-corrector (2 μM of 3-[(2R,4R)-4-({[1-(2,2-difluoro-1,3-benzodioxol-5-yl)cyclopropyl]carbonyl}amino)-7-methoxy-3,4-dihydro-2H-chromen-2-yl]benzoic acid), read-out: EC50 (with co-corrector)
[3] = test compound without co-corrector
[4] = with co-corrector (2 μM of 3-[(2R,4R)-4-({[1-(2,2-difluoro-1,3-benzodioxol-5-yl)cyclopropyl]carbonyl}amino)-7-methoxy-3,4-dihydro-2H-chromen-2-yl]benzoic acid)
[5] = CSE-HRP, test compound without co-corrector, read-out: EC50 (without co-corrector)
[6] = CSE-HRP, with co-corrector (2 μM of 3-[(2R,4R)-4-({[1-(2,2-difluoro-1,3-benzodioxol-5-yl)cyclopropyl]carbonyl}amino)-7-methoxy-3,4-dihydro-2H-chromen-2-yl]benzoic acid), read-out: EC50 (with co-corrector)
[7] = CSE-HRP, with co-corrector (2 μM)

T1 sequence (P13569 with tags, fused parts or gaps DEL508-508): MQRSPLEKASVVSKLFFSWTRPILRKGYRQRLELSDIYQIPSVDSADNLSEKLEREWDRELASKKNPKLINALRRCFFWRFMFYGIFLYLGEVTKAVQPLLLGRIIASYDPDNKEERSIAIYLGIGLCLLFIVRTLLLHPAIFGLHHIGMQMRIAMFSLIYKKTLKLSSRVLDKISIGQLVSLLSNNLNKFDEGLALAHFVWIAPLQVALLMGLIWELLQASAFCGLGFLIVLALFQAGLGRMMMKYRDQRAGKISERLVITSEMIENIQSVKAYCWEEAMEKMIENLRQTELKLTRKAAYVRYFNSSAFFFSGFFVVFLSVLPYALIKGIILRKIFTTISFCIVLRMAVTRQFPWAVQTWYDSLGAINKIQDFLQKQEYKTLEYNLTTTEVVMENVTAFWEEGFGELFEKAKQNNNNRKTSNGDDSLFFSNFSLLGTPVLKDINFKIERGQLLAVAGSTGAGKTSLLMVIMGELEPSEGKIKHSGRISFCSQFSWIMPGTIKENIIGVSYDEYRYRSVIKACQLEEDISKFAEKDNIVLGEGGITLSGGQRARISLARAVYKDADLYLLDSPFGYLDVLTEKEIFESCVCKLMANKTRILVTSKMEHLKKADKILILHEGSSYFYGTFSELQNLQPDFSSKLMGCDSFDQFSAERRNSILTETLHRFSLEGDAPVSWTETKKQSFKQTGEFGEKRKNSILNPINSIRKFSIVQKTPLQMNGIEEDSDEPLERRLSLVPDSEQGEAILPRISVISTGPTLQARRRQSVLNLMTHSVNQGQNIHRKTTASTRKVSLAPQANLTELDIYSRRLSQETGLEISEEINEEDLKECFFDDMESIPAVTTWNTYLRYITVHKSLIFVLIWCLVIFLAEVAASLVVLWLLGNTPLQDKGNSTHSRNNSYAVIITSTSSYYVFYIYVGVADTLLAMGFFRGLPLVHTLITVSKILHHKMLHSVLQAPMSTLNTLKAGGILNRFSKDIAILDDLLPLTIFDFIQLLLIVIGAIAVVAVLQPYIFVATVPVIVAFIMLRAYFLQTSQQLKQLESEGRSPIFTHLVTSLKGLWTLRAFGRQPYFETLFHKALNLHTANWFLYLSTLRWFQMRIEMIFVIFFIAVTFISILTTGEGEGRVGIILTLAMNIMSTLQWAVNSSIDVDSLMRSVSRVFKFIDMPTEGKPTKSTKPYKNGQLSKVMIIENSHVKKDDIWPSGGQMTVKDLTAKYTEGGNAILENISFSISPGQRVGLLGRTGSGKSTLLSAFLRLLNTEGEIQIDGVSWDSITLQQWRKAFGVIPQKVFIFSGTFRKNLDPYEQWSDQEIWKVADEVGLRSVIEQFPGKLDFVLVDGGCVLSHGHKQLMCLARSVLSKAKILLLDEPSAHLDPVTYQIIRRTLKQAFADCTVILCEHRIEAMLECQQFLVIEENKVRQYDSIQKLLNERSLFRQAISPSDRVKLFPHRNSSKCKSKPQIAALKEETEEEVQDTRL

Compound | EC50 [1] | EC50 [2] | Maximum % activity (with co-corrector) (with co-corrector (2 μM)) | Emax (without co-corrector) | Emax [3] | Maximum % activity (with co-corrector) [4] | EC50 [5] | EC50 [6] | Maximum % activity (with co-corrector) [7] | Emax (CSE-HRP, without co-corrector)
COc1ccc(C(C)(C)C)cc1CN[C@H]1[C@H](C(C)(C)C)[C@@H](C(=O)O)N(C(=O)[C@@H]2OCC[C@@H]2c2ccccc2)[C@H]1c1ccccc1 (relative stereo) [Example I-178] | 1 to 10 µM | 1 to 10 µM | +++ (≥350) | 100 to 200% |  |  |  |  |  | 
C=CCCOC(=O)N1[C@H](C(=O)O)[C@@H](C(C)(C)C)[C@H](NCc2cc(C(C)(C)C)ccc2OC)[C@@H]1c1ccccc1 [II-387] | 1 to 10 µM | 1 to 10 µM |  |  | > 200% | +++ (≥350) |  |  |  | 
COc1ccc(C(F)(F)F)cc1CN[C@H]1[C@H](C(C)(C)C)[C@@H](C(=O)O)N(C(=O)[C@@H]2OCC[C@@H]2C)[C@H]1c1ccccc1 (relative stereo) [II-274] |  |  |  |  |  |  | 1 to 10 µM | 1 to 10 µM | +++ (≥350) | > 200%
COc1ncc(Br)cc1CN[C@H]1[C@H](C(C)(C)C)[C@@H](C(=O)O)N(C(=O)OC(C)C)[C@H]1c1ccccc1 [II-170] |  |  |  |  |  |  | 1 to 10 µM | 1 to 10 µM | +++ (≥350) | > 200%
COc1ccc(C(C)(C)C)cc1CN[C@H]1[C@H](C(C)(C)C)[C@@H](C(=O)O)N(C(=O)[C@@H]2CCC[C@@H](OC(F)(F)F)C2)[C@H]1c1cccnc1OC [II-540] | 1 to 10 µM | < 1 µM |  |  | > 200% | +++ (≥350) |  |  |  | 
COc1ccc(C(C)(C)C)cc1CN[C@H]1[C@H](C(C)(C)C)[C@@H](C(=O)O)N(C(=O)[C@]2(C)CCc3c(OC)cccc32)[C@H]1c1ccccc1 [II-366] | 1 to 10 µM | 1 to 10 µM |  |  | 100 to 200% | +++ (≥350) |  |  |  | 
COc1cccc([C@H]2[C@@H](Nc3cc(C(F)(F)F)cc(C)n3)[C@H](C(C)(C)C)[C@@H](C(=O)O)N2C(=O)C2CCCCC2)n1 (racemic) [III-97] | 1 to 10 µM | 1 to 10 µM | ++ (≥150 and <350) |  | < 100% |  |  |  |  | 
COc1ccc(-c2c(C)noc2C)cc1CN[C@H]1[C@H](C(C)(C)C)[C@@H](C(=O)O)N(C(=O)C2CCCCC2)[C@H]1c1ccccc1 [II-285] |  |  |  |  |  |  | 1 to 10 µM | 1 to 10 µM | +++ (≥350) | 100 to 200%
COc1ncc(C(F)(F)F)cc1CN[C@H]1[C@H](C(C)(C)C)[C@@H](C(=O)O)N(C(=O)C2Cc3cccc(C)c3O2)[C@H]1c1ccccc1 (some centres unmarked) [II-446] | 1 to 10 µM | 1 to 10 µM |  |  | < 100% | ++ (≥150 and <350) |  |  |  | 
COc1ncc(-c2ccccc2)cc1CN[C@H]1[C@H](C(C)(C)C)[C@@H](C(=O)O)N(C(=O)C2CCCCC2)[C@H]1c1ccccc1 [Example 25, (2S,3S,4S,5S)-3-tert-butyl-1-(cyclohexanecarbonyl)-4-{[(2-methoxy-5-phenylpyridin-3-yl)methyl]amino}-5-phenylpyrrolidine-2-carboxylic acid] | < 1 µM | < 1 µM | +++ (≥350) | 100 to 200% |  |  |  |  |  | 
COc1ccc(C2CC3CCC2C3)cc1CN[C@H]1[C@H](C(C)(C)C)[C@@H](C(=O)O)N(C(=O)C2CCCCC2)[C@H]1c1ccccc1 (some centres unmarked) [II-194] |  |  |  |  |  |  | < 1 µM | < 1 µM | +++ (≥350) | > 200%
CC(C)OC(=O)N1[C@H](c2ccccc2)[C@H](Nc2cccc(C(F)(F)F)n2)[C@@H](C(C)(C)C)[C@@H]1C(=O)O (racemic) [III-44] | 1 to 10 µM | 1 to 10 µM |  |  | < 100% | ++ (≥150 and <350) |  |  |  | 

Next, values leading:

EC50 [1] | EC50 [2] | Maximum % activity (with co-corrector) (with co-corrector (2 μM)) | Emax (without co-corrector) | Emax [3] | Maximum % activity (with co-corrector) [4] | EC50 [5] | EC50 [6] | Maximum % activity (with co-corrector) [7] | Emax (CSE-HRP, without co-corrector) | Compound
 |  |  |  |  |  | 1 to 10 µM | < 1 µM | +++ (≥350) | > 200% | COc1ccc(C2(C)CCC2)cc1CN[C@H]1[C@H](C(C)(C)C)[C@@H](C(=O)O)N(C(=O)[C@@H]2CCCO2)[C@H]1c1ccccc1Br [Example I-295]
< 1 µM | < 1 µM | +++ (≥350) | < 100% |  |  |  |  |  |  | COc1ncc(C(F)(F)F)cc1CN[C@H]1[C@H](C(C)(C)C)[C@@H](C(=O)O)N(C(=O)C2CCCCC2)[C@H]1c1ccccc1F [Example I-110]
1 to 10 µM | < 1 µM |  |  | > 200% | +++ (≥350) |  |  |  |  | CCCCOC(=O)N1[C@H](C(=O)O)[C@@H](C(C)(C)C)[C@H](NCc2cc(C(C)(C)C)ccc2OC)[C@@H]1c1ccccc1 [II-383]
 |  |  |  |  |  | > 10 µM | 1 to 10 µM | ++ (≥150 and <350) | < 100% | Cc1cc(C(F)(F)F)cc(N[C@@H]2[C@@H](C(C)(C)C)[C@H](C(=O)O)N(C(=O)Cc3ccccc3)[C@@H]2c2ccccc2)n1 (racemic) [II-55]
1 to 10 µM | 1 to 10 µM | +++ (≥350) | 100 to 200% |  |  |  |  |  |  | COc1ccc(Br)nc1CN[C@H]1[C@H](C(C)(C)C)[C@@H](C(=O)O)N(C(=O)C2CCCCC2)[C@H]1c1ccccc1 [Example I-134]
 |  |  |  |  |  | 1 to 10 µM | 1 to 10 µM | +++ (≥350) | > 200% | COc1ccc(Cl)cc1CN[C@@H]1[C@@H](C(C)(C)OC)[C@H](C(=O)O)N(C(=O)C2CCCCC2)[C@@H]1c1ccccc1 (racemic) [II-79]
< 1 µM | < 1 µM |  |  | 100 to 200% | +++ (≥350) |  |  |  |  | COc1nc(C(C)(C)C)ccc1CN[C@H]1[C@H](C(C)(C)C)[C@@H](C(=O)O)N(C(=O)[C@@H]2OC[C@@H]3CCC[C@@H]32)[C@H]1c1ccccc1 (relative stereo) [II-431]
 |  |  |  |  |  | < 1 µM | < 1 µM | +++ (≥350) | 100 to 200% | COc1ccc(C(C)(C)C)cc1CN[C@H]1[C@H](C(C)(C)C)[C@@H](C(=O)O)N(C(=O)C(C)Oc2ccccc2Cl)[C@H]1c1ccccc1 (some centres unmarked) [II-312]
1 to 10 µM | < 1 µM | +++ (≥350) | > 200% |  |  |  |  |  |  | COc1ccc(C(C)(C)C)cc1CN[C@H]1[C@H](C(C)(C)C)[C@@H](C(=O)O)N(C(=O)[C@@H]2CCCCO2)[C@H]1c1ccccc1C [Example 110, (2S,3S,4S,5S)-3-tert-butyl-4-{[(5-tert-butyl-2-methoxyphenyl)methyl]amino}-5-(2-methylphenyl)-1-[(2S)-oxane-2-carbonyl]pyrrolidine-2-carboxylic acid]
 |  |  |  |  |  | 1 to 10 µM | 1 to 10 µM | +++ (≥350) | 100 to 200% | COc1ccc(C(F)(F)F)cc1CN[C@H]1[C@H](C(C)(C)OC)[C@@H](C(=O)O)N(C(=O)C2CCCCC2)[C@H]1c1ccccc1OC [II-295]
1 to 10 µM | < 1 µM | +++ (≥350) |  | 100 to 200% |  |  |  |  |  | COc1nc(C(C)(C)C)ccc1CN[C@H]1[C@H](C(C)(C)C)[C@@H](C(=O)O)N(C(=O)OC(C)C)[C@H]1c1cccnc1N(C)C [III-219]
